Measurements from the NIST ThermoML archive (doi:10.1021/je900124n).
Values joined by “and” are separate entries in the source; they are usually repeats but may differ in a detail not shown here. Identical values can stand only once. Numbers after ± are expanded uncertainties.

Settings: Fluid (supercritical or subcritical phases), Buoyancy - hydrostatic balance with magnetic suspension - two sinkers

CCC [propane]
Settings | mass density
400 K, 11790 kPa | 357.33 ± 0.046 kg/m3
400 K, 11791 kPa | 357.335 ± 0.046 kg/m3 [middle of 4 runs]
400 K, 15926 kPa | 390.231 ± 0.049 kg/m3 [middle of 6 runs]
400 K, 15927 kPa | 390.233 ± 0.049 kg/m3
400 K, 17448 kPa | 398.971 ± 0.05 kg/m3
400 K, 17449 kPa | 398.975 ± 0.05 kg/m3
400 K, 17450 kPa | 398.984 ± 0.05 kg/m3 and 398.981 ± 0.05 kg/m3 and 398.978 ± 0.05 kg/m3
400 K, 29918 kPa | 445.478 ± 0.055 kg/m3
400 K, 29922 kPa | 445.491 ± 0.055 kg/m3
400 K, 29927 kPa | 445.504 ± 0.055 kg/m3
400 K, 29932 kPa | 445.516 ± 0.055 kg/m3
400 K, 29938 kPa | 445.533 ± 0.055 kg/m3
400 K, 35836 kPa | 460.067 ± 0.057 kg/m3
400 K, 35844 kPa | 460.086 ± 0.057 kg/m3
400 K, 35852 kPa | 460.105 ± 0.057 kg/m3
400 K, 35860 kPa | 460.123 ± 0.057 kg/m3
400 K, 35868 kPa | 460.142 ± 0.057 kg/m3
400.01 K, 3901.8 kPa | 73.2154 ± 0.043 kg/m3
400.01 K, 3902 kPa | 73.2198 ± 0.043 kg/m3
400.01 K, 10112 kPa | 336.233 ± 0.048 kg/m3 and 336.235 ± 0.048 kg/m3 and 336.236 ± 0.048 kg/m3
420 K, 352.46 kPa | 4.5346 ± 0.0029 kg/m3 and 4.5345 ± 0.0029 kg/m3 and 4.5347 ± 0.0029 kg/m3
420 K, 352.47 kPa | 4.5348 ± 0.0029 kg/m3
420 K, 629.66 kPa | 8.229 ± 0.0033 kg/m3
420 K, 629.67 kPa | 8.2291 ± 0.0033 kg/m3
420 K, 990.94 kPa | 13.2257 ± 0.0039 kg/m3
420 K, 991.11 kPa | 13.2302 ± 0.0039 kg/m3
420 K, 992.11 kPa | 13.2437 ± 0.0039 kg/m3
420 K, 993.37 kPa | 13.2618 ± 0.0039 kg/m3
420 K, 994.27 kPa | 13.2745 ± 0.0039 kg/m3
420 K, 1638.8 kPa | 22.7735 ± 0.022 kg/m3 and 22.7726 ± 0.022 kg/m3
420 K, 1639 kPa | 22.7748 ± 0.022 kg/m3
420 K, 1639.4 kPa | 22.7815 ± 0.022 kg/m3 and 22.7817 ± 0.022 kg/m3
420 K, 2549.6 kPa | 37.6977 ± 0.026 kg/m3
420 K, 2549.8 kPa | 37.6995 ± 0.026 kg/m3 and 37.7007 ± 0.026 kg/m3 and 37.7006 ± 0.026 kg/m3
420 K, 3591.6 kPa | 57.6483 ± 0.029 kg/m3
420 K, 3591.8 kPa | 57.649 ± 0.029 kg/m3
420 K, 3592 kPa | 57.6554 ± 0.029 kg/m3 and 57.6545 ± 0.029 kg/m3
420 K, 3592.3 kPa | 57.6606 ± 0.029 kg/m3
420 K, 4243.9 kPa | 72.25 ± 0.037 kg/m3
420 K, 4244 kPa | 72.2514 ± 0.037 kg/m3
420 K, 5253.6 kPa | 99.376 ± 0.016 kg/m3 and 99.3762 ± 0.016 kg/m3
420 K, 5253.7 kPa | 99.3774 ± 0.016 kg/m3 and 99.3766 ± 0.016 kg/m3 and 99.3783 ± 0.016 kg/m3
420 K, 6605.8 kPa | 147.752 ± 0.054 kg/m3
420 K, 6605.9 kPa | 147.756 ± 0.054 kg/m3 and 147.757 ± 0.054 kg/m3
420 K, 6606 kPa | 147.761 ± 0.054 kg/m3 and 147.757 ± 0.054 kg/m3
420 K, 6612.9 kPa | 148.072 ± 0.023 kg/m3
420 K, 6613 kPa | 148.069 ± 0.023 kg/m3
420 K, 6613.1 kPa | 148.07 ± 0.023 kg/m3 and 148.073 ± 0.023 kg/m3
420 K, 6613.2 kPa | 148.071 ± 0.023 kg/m3
420 K, 6780.5 kPa | 155.128 ± 0.054 kg/m3 and 155.129 ± 0.054 kg/m3
420 K, 6780.6 kPa | 155.129 ± 0.054 kg/m3 and 155.128 ± 0.054 kg/m3
420 K, 7709.3 kPa | 196.595 ± 0.063 kg/m3
420 K, 7709.5 kPa | 196.603 ± 0.063 kg/m3
420 K, 7709.6 kPa | 196.603 ± 0.063 kg/m3
420 K, 7709.7 kPa | 196.608 ± 0.063 kg/m3 and 196.605 ± 0.063 kg/m3 and 196.607 ± 0.063 kg/m3
420 K, 7709.8 kPa | 196.607 ± 0.063 kg/m3
420 K, 7709.9 kPa | 196.61 ± 0.063 kg/m3
420 K, 8228.3 kPa | 219.041 ± 0.046 kg/m3
420 K, 8228.4 kPa | 219.041 ± 0.046 kg/m3 and 219.043 ± 0.046 kg/m3
420 K, 8228.5 kPa | 219.044 ± 0.046 kg/m3 and 219.042 ± 0.046 kg/m3 and 219.043 ± 0.046 kg/m3
420 K, 8228.6 kPa | 219.042 ± 0.046 kg/m3 and 219.043 ± 0.046 kg/m3
420 K, 8848 kPa | 242.768 ± 0.043 kg/m3 and 242.766 ± 0.043 kg/m3 and 242.77 ± 0.043 kg/m3
420 K, 8848.1 kPa | 242.767 ± 0.043 kg/m3
420 K, 8848.2 kPa | 242.772 ± 0.043 kg/m3 and 242.768 ± 0.043 kg/m3
420 K, 10126 kPa | 279.933 ± 0.043 kg/m3 and 279.935 ± 0.043 kg/m3
420 K, 10127 kPa | 279.933 ± 0.043 kg/m3 and 279.936 ± 0.043 kg/m3 and 279.935 ± 0.043 kg/m3
420 K, 13593 kPa | 335.538 ± 0.044 kg/m3 [middle of 4 runs]
420 K, 20930 kPa | 389.39 ± 0.05 kg/m3
420 K, 20931 kPa | 389.391 ± 0.05 kg/m3 and 389.393 ± 0.05 kg/m3
420.01 K, 629.66 kPa | 8.2291 ± 0.0033 kg/m3
420.01 K, 629.67 kPa | 8.229 ± 0.0033 kg/m3
420.01 K, 4243.9 kPa | 72.2481 ± 0.037 kg/m3 and 72.2491 ± 0.037 kg/m3 and 72.2487 ± 0.037 kg/m3
420.01 K, 4244 kPa | 72.2505 ± 0.037 kg/m3 and 72.2532 ± 0.037 kg/m3 and 72.2519 ± 0.037 kg/m3
420.01 K, 6606 kPa | 147.759 ± 0.054 kg/m3
420.01 K, 6606.4 kPa | 147.771 ± 0.054 kg/m3
420.01 K, 13593 kPa | 335.538 ± 0.044 kg/m3 and 335.537 ± 0.044 kg/m3
420.01 K, 20931 kPa | 389.392 ± 0.05 kg/m3 and 389.394 ± 0.05 kg/m3
420.01 K, 20932 kPa | 389.393 ± 0.05 kg/m3
440 K, 368.32 kPa | 4.5138 ± 0.0029 kg/m3 and 4.514 ± 0.0029 kg/m3 and 4.5139 ± 0.0029 kg/m3
440 K, 658.93 kPa | 8.1892 ± 0.0033 kg/m3
440 K, 658.95 kPa | 8.1897 ± 0.0033 kg/m3
440 K, 1032.5 kPa | 13.0703 ± 0.0039 kg/m3 and 13.0712 ± 0.0039 kg/m3
440 K, 1032.8 kPa | 13.0744 ± 0.0039 kg/m3
440 K, 1733.1 kPa | 22.7483 ± 0.021 kg/m3
440 K, 1733.2 kPa | 22.75 ± 0.021 kg/m3 and 22.7499 ± 0.021 kg/m3 and 22.7504 ± 0.021 kg/m3
440 K, 1733.4 kPa | 22.752 ± 0.021 kg/m3
440 K, 2721.5 kPa | 37.7309 ± 0.024 kg/m3
440 K, 2721.7 kPa | 37.7344 ± 0.024 kg/m3
440 K, 2721.8 kPa | 37.7372 ± 0.024 kg/m3
440 K, 2721.9 kPa | 37.7372 ± 0.024 kg/m3
440 K, 2722.1 kPa | 37.7402 ± 0.024 kg/m3
440 K, 3865 kPa | 57.5204 ± 0.027 kg/m3
440 K, 3865.3 kPa | 57.5255 ± 0.027 kg/m3
440 K, 3865.4 kPa | 57.5267 ± 0.027 kg/m3
440 K, 3865.5 kPa | 57.5266 ± 0.027 kg/m3
440 K, 3865.7 kPa | 57.532 ± 0.027 kg/m3
440 K, 4613.1 kPa | 72.2413 ± 0.012 kg/m3 [middle of 4 runs]
440 K, 5803.9 kPa | 99.3306 ± 0.016 kg/m3 and 99.3318 ± 0.016 kg/m3
440 K, 5804 kPa | 99.3333 ± 0.016 kg/m3 and 99.3338 ± 0.016 kg/m3
440 K, 7526.8 kPa | 147.61 ± 0.042 kg/m3 and 147.611 ± 0.042 kg/m3
440 K, 7535.9 kPa | 147.904 ± 0.022 kg/m3 and 147.903 ± 0.022 kg/m3
440 K, 7536 kPa | 147.904 ± 0.022 kg/m3
440 K, 7762.5 kPa | 154.944 ± 0.043 kg/m3
440 K, 7762.6 kPa | 154.945 ± 0.043 kg/m3 and 154.944 ± 0.043 kg/m3
440 K, 9826.6 kPa | 218.701 ± 0.053 kg/m3 and 218.702 ± 0.053 kg/m3 and 218.7 ± 0.053 kg/m3
440 K, 9826.7 kPa | 218.702 ± 0.053 kg/m3 and 218.7 ± 0.053 kg/m3 and 218.701 ± 0.053 kg/m3
440.01 K, 658.93 kPa | 8.1888 ± 0.0033 kg/m3
440.01 K, 658.95 kPa | 8.1894 ± 0.0033 kg/m3 and 8.1895 ± 0.0033 kg/m3
440.01 K, 1032.5 kPa | 13.0692 ± 0.0039 kg/m3
440.01 K, 1032.8 kPa | 13.0752 ± 0.0039 kg/m3
440.01 K, 4613.1 kPa | 72.2397 ± 0.012 kg/m3 and 72.2408 ± 0.012 kg/m3 and 72.2337 ± 0.012 kg/m3
440.01 K, 7526.8 kPa | 147.613 ± 0.042 kg/m3 and 147.61 ± 0.042 kg/m3 and 147.611 ± 0.042 kg/m3
440.01 K, 7526.9 kPa | 147.613 ± 0.042 kg/m3 and 147.612 ± 0.042 kg/m3
460 K, 384.07 kPa | 4.4943 ± 0.0029 kg/m3 [middle of 5 runs]
460 K, 687.74 kPa | 8.1494 ± 0.0033 kg/m3
